Source: US8163785B2, “Pyrazolo[5,1b]oxazole derivatives as CRF-1 receptor antagonists” (Novartis AG, priority 2010, dated 2012)

Molecular target: T1, human recombinant CRF-1 receptor (Homo sapiens, UniProt P34998)
T1 construct: expressed in transfected cells; host or cells: Chinese hamster ovary (CHO) cells, G418-selected
T1 sequence (P34998 24-415): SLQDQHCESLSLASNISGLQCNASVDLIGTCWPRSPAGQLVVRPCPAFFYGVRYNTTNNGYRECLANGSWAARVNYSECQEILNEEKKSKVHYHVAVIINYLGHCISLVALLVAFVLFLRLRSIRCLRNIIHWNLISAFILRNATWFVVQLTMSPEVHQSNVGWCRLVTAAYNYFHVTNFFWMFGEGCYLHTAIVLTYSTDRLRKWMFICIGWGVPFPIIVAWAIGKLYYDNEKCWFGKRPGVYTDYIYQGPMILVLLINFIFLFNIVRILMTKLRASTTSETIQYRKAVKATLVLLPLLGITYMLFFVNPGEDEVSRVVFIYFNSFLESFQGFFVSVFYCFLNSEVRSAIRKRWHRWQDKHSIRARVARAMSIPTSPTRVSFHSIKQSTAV
Experiment: CRF-1 receptor antagonism, HTRF cAMP assay in CHO cells in the presence of 1 nM CRF
Format: cell-based
Details: CHO cells expressing human recombinant CRF-1; inhibition of the effect of 1 nM CRF on cAMP; read-out: hCRF1ANTAG/IC50
Experimental: The CRF-1 or CRF-2a receptor activity of the agents of the invention has been determined in vitro in the following way:
Chinese hamster ovary (CHO) cells expressing either the human recombinant CRF-1 or CRF-2a receptors (Chen et al., Proc Natl Acad Sci USA 90, 8967-8971, 1993; Liaw et al., Endocrinology 137, 72-77, 1996) are propagated in Dulbecco's modified Eagle medium supplemented with 10% foetal calf serum, non-essential amino acids, 100 U/ml penicillin, 100 mg/l streptomycin and 1 g/l geneticin (G418). For cyclic AMP determinations the Homogeneous Time-Resolved Fluoresce (HTRF) cAMP dynamic 2 kit (Cishbio International, France) was used as per manufacturers' instructions. CHO cells, previously cryopreserved, were thawed, centrifuged for 7 mins at 1200 rpm and resuspended in serum free media, then pipetted out onto clear bottomed black tissue culture treated 384-well microtitre plates (Corning Inc, US) at 2,000 cells per well. […] The plate is read on the Pherastar (BMG, Germany). […] Values represented by a change in arbitrary fluorescence units are converted into cAMP concentrations by use of a standard curve the reagents for which are supplied with the kit. […] IC50 values of antagonists are calculated by fitting the percent inhibition of the effect of CRF by increasing concentrations of the antagonists. […]

Cc1nc(C)n(-c2c(C)nn3c(-c4ccc(OC(F)F)cc4C)c(C)oc23)n1 [Example 1, 3-(4-(Difluoromethoxy)-2-methylphenyl)-7-(3,5-dimethyl-1H-1,2,4-triazol-1-yl)-2,6-dimethylpyrazolo[5,1-b]oxazole]
IC50: 71 nM
